From article PMC10513218, “Effect of Green and Red Thai Kratom (Mitragyna speciosa) on pancreatic digestive enzymes (alpha-glucosidase and lipase) and acetyl-carboxylase 1 activity: A possible therapeutic target for obesity prevention” (PLOS ONE, 2023)
“And” between values parts separate entries of the source, which are not always exact repeats. Equal entries are not always repeated. Where two headings read alike, the source gives them in different places.

How the values were obtained:
alpha-glucosidase [1] = molecular target: T1, alpha-glucosidase (Saccharomyces cerevisiae, UniProt P53341); experiment: Inhibition of alpha-glucosidase with pNPG as substrate; type: biochemical; details: for Mode of inhibition of alpha-glucosidase: Lineweaver-Burk plots
T1 sequence (P53341 whole entry): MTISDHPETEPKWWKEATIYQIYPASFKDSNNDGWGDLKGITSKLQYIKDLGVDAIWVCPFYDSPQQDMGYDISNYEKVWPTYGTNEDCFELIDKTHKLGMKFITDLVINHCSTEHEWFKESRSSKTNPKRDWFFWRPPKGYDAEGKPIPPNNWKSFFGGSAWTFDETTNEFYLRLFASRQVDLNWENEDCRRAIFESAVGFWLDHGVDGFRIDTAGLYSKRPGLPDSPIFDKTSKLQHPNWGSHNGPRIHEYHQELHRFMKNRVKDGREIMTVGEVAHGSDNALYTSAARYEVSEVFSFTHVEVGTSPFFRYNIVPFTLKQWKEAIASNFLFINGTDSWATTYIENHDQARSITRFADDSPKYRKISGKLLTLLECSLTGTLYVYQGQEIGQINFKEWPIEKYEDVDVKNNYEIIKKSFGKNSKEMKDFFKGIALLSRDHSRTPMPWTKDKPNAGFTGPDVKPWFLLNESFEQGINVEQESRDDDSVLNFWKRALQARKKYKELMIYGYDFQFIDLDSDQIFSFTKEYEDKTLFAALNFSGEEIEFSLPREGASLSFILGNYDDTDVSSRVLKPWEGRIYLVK
Description: Inhibition of alpha-glucosidase was performed using p-nitrophenol-α-D-glucopyranoside (pNPG) as a substrate. […] After 10 min, the reactions were started with the addition of pNPG at 0.007, 0.015, 0.03, 0.06, 0.125, 0.25, and 5 mM. The mode of inhibition and inhibition constant (Ki) were determined by Lineweaver-Burk plots.

lipase = molecular target: T2, lipase (Homo sapiens, UniProt P16233); experiment: Inhibition of lipase with pNPP as substrate; type: biochemical
T2 sequence (P16233 17-465): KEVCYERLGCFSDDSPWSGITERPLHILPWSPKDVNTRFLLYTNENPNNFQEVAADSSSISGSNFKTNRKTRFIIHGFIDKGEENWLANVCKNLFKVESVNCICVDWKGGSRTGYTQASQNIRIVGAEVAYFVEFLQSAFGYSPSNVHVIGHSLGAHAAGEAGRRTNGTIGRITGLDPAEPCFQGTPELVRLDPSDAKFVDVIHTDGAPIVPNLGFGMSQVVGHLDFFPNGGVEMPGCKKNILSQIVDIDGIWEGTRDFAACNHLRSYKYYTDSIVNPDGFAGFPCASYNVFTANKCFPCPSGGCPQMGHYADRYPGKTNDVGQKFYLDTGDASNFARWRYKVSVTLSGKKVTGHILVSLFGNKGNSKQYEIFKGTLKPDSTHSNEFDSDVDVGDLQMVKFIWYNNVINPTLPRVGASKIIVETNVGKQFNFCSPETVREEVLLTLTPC
Description: Inhibition of lipase was performed using p-nitrophenyl palmitate (pNPP) as a substrate. […] The IC50 was determined by plotting the remaining activity of lipase at each inhibitor concentration and […]. […] After 10 min, the reactions were started by the addition of pNPP at 0.02, 0.03, 0.06, 0.125, 0.25, 3.5 and 5 mM. The mode of inhibition and inhibition constant (Ki) were determined by Lineweaver-Burk plots.

ACC1 = tested on: T3, ACC1; experiment: ACC1 inhibition assay (ACC1 Assay Kit, acetyl-CoA decrease by HPLC); type: biochemical; details: for Effect on ACC1 activity: 0, 1, 10, 100 μM
T3 construct: purchased BPS Bioscience (USA)
Description: An ACC1 inhibition assay was performed using the ACC1 Assay Kit from BPS Bioscience (USA) following the manufacturer’s protocol. […] After a 10-minute pre-incubation period, the reaction was initiated by adding 0.1 ng/mL of ACC1 enzyme. The reactions were allowed to proceed for 40 minutes before being terminated by the addition of 100 μl of chilled acetonitrile. The samples were then centrifuged, and the supernatants were carefully transferred to new tubes for analysis. The rate of reaction was quantified by monitoring the decrease in acetyl-CoA substrate concentration using a C18 HPLC column, employing a mobile phase consisting of a linear gradient of water and methanol.

alpha-glucosidase [2] = molecular target: T1, alpha-glucosidase; parameters: method as in doi:10.1016/j.fshw.2014.11.003; details: cited from earlier work
[3] = HFD-induced rats, versus control group; cited from earlier work

Row | SMILES | Mode of inhibition of alpha-glucosidase (alpha-glucosidase [1]) | Mode of inhibition of lipase (lipase; Lineweaver-Burk plots) | Effect on ACC1 activity (ACC1) | also measured
1 | C[C@H]1O[C@H](O[C@H]2[C@H](O)[C@@H](O)[C@@H](O[C@H]3[C@H](O)[C@@H](O)C(O)O[C@@H]3CO)O[C@@H]2CO)[C@H](O)[C@@H](O)[C@@H]1N[C@H]1C=C(CO)[C@@H](O)[C@H](O)[C@H]1O (some centres unmarked) [Acarbose, acarbose, reference compound] | Non-competitive inhibition |  |  | 
2 | CCC1CN2CCc3c([nH]c4cccc(OC)c34)C2CC1/C(=C\OC)C(=O)OC (centres unmarked) [Mitragynine] | mix-typed inhibition | Competitive inhibition | not and weak inhibitory effect | IC50 (lipase): 27.4 ± 2.9 µM; Ki (lipase; Ki lipase, Lineweaver-Burk plots, pNPP): 13.7 µM and 7 µM; Alpha-glucosidase IC50 lower than acarbose (alpha-glucosidase [1]; ratio of acarbose IC50 to IC50): 7.3 fold
3 | COc1ccc2c(c1)[nH]c1c3c(c(C)cc12)O[C@](C)(CCC=C(C)C)C=C3 [O-methyl mahanine] |  |  |  | IC50 (alpha-glucosidase [2]): 46.1 µM
4 | CCCCCCCCCCC[C@@H](C[C@@H]1OC(=O)[C@H]1CCCCCC)OC(=O)[C@H](CC(C)C)NC=O [Orlistat, orlistat, reference compound] |  | Competitive inhibition |  | 
5 | O=c1c(O)c(-c2ccc(O)c(O)c2)oc2cc(O)cc(O)c12 [Quercetin] |  | Competitive inhibition | decreased ACC1 activity in a dose-dependent manner | Plasma triglyceride [3]: lower than in the control group; Decrease of ACC1 activity (ACC1; 100 μM): 60%
6 | C[C@@H]1O[C@@H](OC[C@H]2O[C@@H](Oc3c(-c4ccc(O)c(O)c4)oc4cc(O)cc(O)c4c3=O)[C@H](O)[C@@H](O)[C@@H]2O)[C@H](O)[C@H](O)[C@H]1O [Rutin, rutin] |  |  |  | IC50 (lipase; pure compounds and positive control, pNPP at Km 1.3 mM, unit given, read-out: Half-maximal inhibitory concentration (IC50) Lipase): > 100 µM
